From patent US9034866B2 (Genentech, Inc., priority 2012, dated 2015)
“And” between values parts separate entries of the source, which are not always exact repeats. Equal values may be shown once. Read-outs that look alike come from different tables or passages of the source.

Biological target: nuclear factor-kappa B (NF-kB)-inducing kinase (NIK) (Homo sapiens (Human), UniProt Q99558)
Assay: NIK Enzyme Inhibition Assay (Transcreener ADP fluorescence polarization)
Format: biochemical
Details: read-out: NIK ADP-FP (Ki uM)
Method: NIK Enzyme Inhibition Assay: The ability of the nuclear factor-kappa B (NF-kB)-inducing kinase (NIK) to catalyze the hydrolysis of adenosine-5′-triphosphate (ATP) was monitored using the Transcreener ADP (adenosine-5′-diphosphate) assay (BellBrook Labs). Purified NIK (0.2-1 nM) derived from a baculovirus-infected insect cell expression system was incubated with test compounds for 1-3.5 hours in 50 mM 2-[4-(2-hydroxyethyl)piperazin-1-yl]ethanesulfonic acid buffer (pH 7.2) containing 10 mM MgCl2, 2 mM dithiothreitol, 10 uM ATP, 0.01% Triton X-100, 0.1% gamma-globulins from bovine blood, 1% dimethylsulfoxide (DMSO), 12 ug/mL ADP antibody and 4 nM ADP-AlexaFluor® 633 tracer. Reactions were quenched by the addition of 20 mM 2,2′,2″,2′″-(ethane-1,2-diyldinitrilo)tetraacetic acid and 0.01% Brij 35. The tracer bound to the antibody was displaced by the ADP generated during the NIK reaction, which causes a decrease in fluorescence polarization that was measured by laser excitation at 633 nm with a Fluorescence Correlation Spectroscopy Plus reader (Evotec AG).

[1] = purified NIK 0.2-1 nM, 10 uM ATP, Morrison's quadratic equation

nuclear factor-kappa B (NF-kB)-inducing kinase (NIK), sequence (Q99558 whole entry): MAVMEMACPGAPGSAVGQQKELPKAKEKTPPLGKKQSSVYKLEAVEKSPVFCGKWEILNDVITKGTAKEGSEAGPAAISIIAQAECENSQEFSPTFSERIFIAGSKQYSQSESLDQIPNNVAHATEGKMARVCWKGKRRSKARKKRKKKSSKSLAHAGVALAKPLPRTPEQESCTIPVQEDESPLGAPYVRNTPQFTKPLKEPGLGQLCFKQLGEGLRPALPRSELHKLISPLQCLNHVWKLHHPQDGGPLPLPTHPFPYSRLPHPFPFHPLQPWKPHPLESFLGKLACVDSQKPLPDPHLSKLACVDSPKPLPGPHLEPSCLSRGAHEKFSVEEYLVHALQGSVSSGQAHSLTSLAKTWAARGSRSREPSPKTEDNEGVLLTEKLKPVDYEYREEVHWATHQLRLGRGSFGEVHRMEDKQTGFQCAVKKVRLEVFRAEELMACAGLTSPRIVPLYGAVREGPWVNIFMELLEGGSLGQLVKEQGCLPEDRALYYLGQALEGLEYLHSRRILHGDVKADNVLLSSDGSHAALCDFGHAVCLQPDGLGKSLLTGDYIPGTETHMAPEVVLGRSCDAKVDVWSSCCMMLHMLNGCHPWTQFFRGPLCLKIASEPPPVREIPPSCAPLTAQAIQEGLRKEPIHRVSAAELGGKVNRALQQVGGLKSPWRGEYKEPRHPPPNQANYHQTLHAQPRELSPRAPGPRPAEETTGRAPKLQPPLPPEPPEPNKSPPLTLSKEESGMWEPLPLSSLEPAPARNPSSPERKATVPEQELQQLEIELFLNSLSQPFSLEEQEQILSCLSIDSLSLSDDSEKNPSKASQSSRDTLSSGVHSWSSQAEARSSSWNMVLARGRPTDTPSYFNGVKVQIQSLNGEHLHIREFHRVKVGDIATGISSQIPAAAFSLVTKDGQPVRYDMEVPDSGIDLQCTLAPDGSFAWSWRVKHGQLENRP

| Ki [1] | SMILES | Ki [µM] |
| --- | --- | --- |
| 0.096 µM | CN(C)C1COc2ccc(C#CC(C)(C)O)cc2-c2nc(C(N)=O)sc21 (stereo not drawn) [Example 10, 4-dimethylamino-9-(3-hydroxy-3-meth-yl-but-1-ynyl)-4,5-dihydro-6-oxa-3-thia-1-aza-benzo[e]azulene-2-carboxylic acid amide] | – |
| 0.0005 µM | CN1CC[C@@](O)(C#Cc2ccc3c(c2)-n2nc(C(N)=O)cc2C2(CCC2)CO3)C1=O [Example 717, (R)-9-((3-hydroxy-1-methyl-2-oxopyrro-lidin-3-yl)ethynyl)-5H-spiro[ben-zo[b]pyrazolo[1,5-d][1,4]oxazepine-4,1′-cyclobutane]-2-carboxamide] | – |
| 0.068 µM | COCC(C)(O)C#Cc1cc2c(cc1F)OCCn1cc(C(N)=O)nc1-2 (stereo not drawn) | – |
| 0.052 µM | NC(=O)c1cn2c(n1)-c1cc(C#CC3(O)CCCC3)ccc1OCC2 [Example 1, 9-(1-hydroxy-cyclopentylethynyl)-4,5-di-hydro-6-oxa-1,3a-diaza-benzo[e]azulene-2-carboxylic acid amide] | – |
| 1.8 µM and 1.1 µM | NC(=O)c1cc2n(n1)-c1cc(C#CC3(O)CCCC3O)ccc1OCC2 (stereo not drawn) [Example 695] | – |
| 0.0042 µM | CC(C)NCc1c(C(N)=O)nc2n1CCOc1ccc(C#CC(C)(C)O)cc1-2 | – |
| 0.416 µM | CC(C)(O)C#Cc1ccc2c(c1)-c1nc(C(N)=O)sc1C(N1CCOCC1)CO2 (stereo not drawn) [Example 11, 9-(3-hydroxy-3-methyl-but-1-ynyl)-4-morpholin-4-yl-4,5-dihydro-6-oxa-3-thia-1-aza-benzo[e]azulene-2-carboxylic acid amide] | – |
| 0.635 µM | Cn1nc(-c2ccncc2)nc1-c1c(C(N)=O)nc2n1CCOc1cc(F)c(C#CC(C)(C)O)cc1-2 (racemic) | – |
| 0.014 µM | CC(O)(C#Cc1cc2c(cc1F)C1CC(C1)n1cc(C(N)=O)nc1-2)CO (stereo not drawn) | – |
| 0.016 µM | CN1CC[C@@](O)(C#Cc2ccc3c(c2)-c2nc(C(N)=O)c(C(=O)NC4CC4)n2C2CC3C2)C1=O | – |
| 0.0051 µM | NC(=O)c1cn2c(n1)-c1cc(C#CC3(O)CCc4cccnc43)ccc1OCC2 (racemic) | – |
| – | CNC(=O)c1c(C(N)=O)nn2c1CCOc1ccc(C#C[C@@](C)(O)c3cc(C)on3)cc1-2 [Example 548] | 0.0014 |
| 1.8 µM and 1.1 µM | CC(C)(O)C#Cc1ccc2c(c1)-c1nc(C(N)=O)c(CN3CCC(=O)C3)n1CCO2 [Example 711] | – |
| 0.1 µM | NC(=O)c1cc2n(n1)-c1cc(C#CC3(O)CCCC3)ccc1OCC21COC1 [Example 715, 9-((1-hydroxycyclopentyl)ethynyl)-5H-spiro[benzo[b]pyrazolo[1,5-d][1,4]oxa-zepine-4,3′-oxetane]-2-carboxamide] | – |
| 0.0029 µM | Cc1nc([C@](C)(O)C#Cc2ccc3c(c2)-c2nc(C(N)=O)c(C(O)c4ccnn4C)n2C2CC3C2)no1 (stereo partly drawn) | – |
| 0.034 µM | CC(C)(O)C#Cc1cc2c(cc1F)OCCn1cc(C(N)=O)nc1-2 [Example 5, 8-fluoro-9-(3-hydroxy-3-methyl-but-1-ynyl)-4,5-dihydro-6-oxa-1,3a-diaza-ben-zo[e]azulene-2-carboxylic acid amide] | – |
| 0.002 µM | CC(O)(C#Cc1cc2c(cc1F)OCCn1cc(C(N)=O)nc1-2)c1cc(CO)on1 (stereo not drawn) [Example 32, 8-fluoro-9-[3-hydroxy-3-(5-hydroxymeth-yl-isoxazol-3-yl)-but-1-ynyl]-4,5-dihy-dro-6-oxa-1,3a-diaza-benzo[c]azulene-2-carboxylic acid amide] | – |
| 0.024 µM | CC(O)(C#Cc1cc2c(cc1F)OCCn1cc(C(N)=O)nc1-2)c1ccccn1 (racemic) [Example 54] | – |
| 3.5 µM | CC(O)(C#Cc1cc2c(cc1F)OCCn1cc(C(N)=O)nc1-2)c1ccc(F)cn1 (stereo not drawn) [Example 101, 8-fluoro-9-[3-(5-fluoro-pyridin-2-yl)-3-hydroxy-but-1-ynyl]-4,5-dihydro-6-oxa-1,3a-diaza-benzo[e]azulene-2-carboxy-lic acid amide] | – |

| Ki [1] | SMILES | Ki [µM] |
| --- | --- | --- |
| 0.033 µM | Cn1cc([C@@H](O)c2c(C(N)=O)nc3n2CCOc2cc(F)c(C#CC(C)(C)O)cc2-3)cn1 | – |
| 0.017 µM | CC(C)(O)C#Cc1cc2c(cc1F)C1CC(C1)n1c-2nc(C(N)=O)c1CNC(=O)C(C)(C)C [Example 365, 3-[(2,2-dimethylpropanoylamino)meth-yl]-9-fluoro-10-(3-hydroxy-3-methyl-but-1-ynyl)-5,6,7,12-tetrahydro-5,7-meth-anobenzo[c]imidazo[1,2-a]azepine-2-carb-oxamide] | – |
| 0.033 µM | CC(C)(O)C#Cc1ccc2c(c1)-c1nc(C(N)=O)sc1CCO2 [Example 3, 9-(3-hydroxy-3-methyl-but-1-ynyl)-4,5-dihydro-6-oxa-3-thia-1-aza-benzo[e]azu-lene-2-carboxylic acid amide] | – |
| 0.057 µM | CC(C)(O)C#Cc1ccc2c(c1)-c1nc(C(N)=O)sc1C(F)(F)CO2 [Example 27, 4,4-diriuoro-9-(3-hydroxy-3-methyl-but-1-ynyl)-4,5-dihydro-6-oxa-3-thia-1-aza-benzo[c]azulene-2-carboxylic acid amide] | – |
| 0.094 µM | CC(C)(O)C#Cc1ccc2c(c1)-c1nc(C(N)=O)sc1C(C)(O)CO2 (stereo not drawn) [Example 21, 4-hydroxy-9-(3-hydroxy-3-methyl-but-1-ynyl)-4-methyl-4,5-dihydro-6-oxa-3-thia-1-aza-benzo[e]azulene-2-carboxylic acid amide] | – |
| 0.041 µM | COCC1(CNC(=O)c2c(C(N)=O)nc3n2CCOc2cc(F)c(C#CC(C)(C)O)cc2-3)CC1 (racemic) [Example 69] | – |
| > 1.2 µM | CN1CC[C@](O)(C#Cc2ccc3c(c2)-c2nc(C(N)=O)c(C4CN(C(=O)C5CC5)C4)n2C2CC3C2)C1=O (racemic) | – |
| 0.023 µM | Cc1nn(C)cc1C(O)c1c(C(N)=O)nc2n1CCOc1cc(F)c(C#CC(C)(C)O)cc1-2 (stereo not drawn) [Example 169] | – |
| – | Cc1cc([C@](C)(O)C#Cc2ccc3c(c2)-n2nc(C(N)=O)cc2C(F)(F)CO3)no1 [Example 674, (R)-4,4-difluoro-9-(3-hydroxy-3-(5-methylisoxazol-3-yl)but-1-yn-1-yl)-4,5-dihydrobenzo[b]pyrazolo[1,5-d][1,4]oxazepine-2-carboxamide] | 0.0011 |
| 1.2 µM | CC(O)(C#Cc1cc2c(cc1F)OCCn1cc(C(N)=O)nc1-2)c1nc(CC#N)cs1 (racemic) [Example 77] | – |
| 0.403 µM | CN(C)C(=O)CC1COc2ccc(C#CC(C)(C)O)cc2-c2nc(C(N)=O)sc21 (stereo not drawn) [Example 43, 4-dimethylcarbamoylmethyl-9-(3-hydro-xy-3-methyl-but-1-ynyl)-4,5-dihydro-6-oxa-3-thia-1-aza-benzo[e]azulene-2-car-boxylic acid amide] | – |
| 0.012 µM | CC(C)(O)C#Cc1cc2c(cc1F)OCCn1c-2nc(C(N)=O)c1Cc1ccccc1F [Example 25, 8-fluoro-3-(2-fluoro-benzyl)-9-(3-hydro-xy-3-methyl-but-1-ynyl)-4,5-dihydro-6-oxa-1,3a-diaza-benzol[e]azulene-2-car-boxylic acid amide] | – |
| 0.007 µM | CNC(=O)c1c(C(N)=O)nc2n1CCOc1cc(F)c(C#C[C@@](C)(O)c3noc(C)n3)cc1-2 [Example 97, 8-fluoro-9-[(R)-3-hydroxy-3-(5-methyl-[1,2,4]oxadiazol-3-yl)-but-1-ynyl]-4,5-dihydro-6-oxa-1,3a-diaza-ben-zo[e]azulene-2,3-dicarboxylic acid 2-amide 3-methylamide] | – |
| 0.036 µM | CC(O)(C#Cc1ccc2c(c1)-c1nc(C(N)=O)cn1C1CC2C1)CO (stereo not drawn) [Example 181, 10-(3,4-dihydroxy-3-methyl-but-1-ynyl)-5,6,7,12-tetrahydro-5,7-methanoben-zo[c]imidazo[1,2-a]azepine-2-carboxamide] | – |
| 0.004 µM | NC(=O)c1nc2c(s1)CCOc1ccc(C#CC3(O)CCCC3)cc1-2 [Example 4, 9-(1-hydroxy-cyclopentylethynyl)-4,5-di-hydro-6-oxa-3-thia-1-aza-benzo[e]azu-lene-2-carboxylic acid amide] | – |
| 0.0065 µM | CC(O)(C#Cc1cc2c(cc1F)C1CC(C1)n1c-2nc(C(N)=O)c1-c1nc(C2CC2)n[nH]1)CO (stereo not drawn) | – |
| 0.083 µM | CC(O)(C#Cc1cc2c(cc1F)OCCn1cc(C(N)=O)nc1-2)c1ncc[nH]1 (racemic) | – |
| > 5 µM | Cn1cnc(C(C)(O)C#Cc2cc3c(cc2F)OCCn2cc(C(N)=O)nc2-3)c1 (stereo not drawn) | – |

| SMILES | Ki [1] | Ki [µM] |
| --- | --- | --- |
| Cn1ccnc1C(C)(O)C#Cc1cc2c(cc1F)OCCn1cc(C(N)=O)nc1-2 (stereo not drawn) | 0.239 µM | – |
| CC(C)(O)C#Cc1cc2c(cc1F)OCCn1c-2nc(C(N)=O)c1C(=O)NC1CN2CCC1CC2 (racemic) | 0.453 µM | – |
| CNC(=O)c1c(C(N)=O)nc2n1C1CC(C1)c1cc(F)c(C#CC(C)(O)CO)cc1-2 (stereo not drawn) | 0.01 µM | – |
| CC(=O)NC1COc2ccc(C#CC(C)(C)O)cc2-c2nc(C(N)=O)sc21 (stereo not drawn) [Example 26, 4-acetylamino-9-(3-hydroxy-3-methyl-but-1-ynyl)-4,5-dihydro-6-oxa-3-thia-1-aza-benzo[e]azulene-2-carboxylic acid amide] | 0.21 µM | – |
| CN1CCCC(O)(C#Cc2cc3c(cc2F)OCCc2sc(C(N)=O)nc2-3)C1=O (stereo not drawn) | 0.002 µM | – |
| NC(=O)c1cn2c(n1)-c1cc(C#CC3(O)CC4CCC(C3)N4)ccc1OCC2 (stereo not drawn) [Example 31, 9-(3-hydroxy-8-aza-bicyclo[3.2.1]oct-3-ylethynyl)-4,5-dihydro-6-oxa-1,3a-diaza-benzo[e]azulene-2-carboxylic acid amide] | > 5 µM | – |
| CN1CC[C@](O)(C#Cc2ccc3c(c2)-c2nc(C(N)=O)cn2C2CC3C2)C1=O | > 1.2 µM | – |
| CC(O)(C#Cc1cc2c(cc1F)OCCn1cc(C(N)=O)nc1-2)c1cnccn1 (stereo not drawn) [Example 15, 8-fluoro-9-(3-hydroxy-3-pyrazin-2-yl-but-1-ynyl)-4,5-dihydro-6-oxa-1,3a-diaza-benzo[e]azulene-2-carboxylic acid amide] | 0.036 µM | – |
